Structures can show the parent of a compound that is named as a salt. Where two headings read alike, the source gives them in different places.

The test system of experiment [1] is lung cancer cells (A549). The note with it: lung mimicking model, FIG. 5A.
Method: Then, gelation was allowed at room temperature for 15 minutes. Then, after coating with collagen (0.03 mg/ml, 1 VL content) (sigma, collagen type I solution) and fibronectin (0.001%, 5 mg) (Sigma, F0895) for two hours at 37° C., a total of 20 μl of 4×10^6/ml of HUVEC (LONZA, HUVEC-Umbil vein, Pooled cells) as vascular endothelial cells was added into one of the cell culture channels, the chip was raised at 90°, and the cells were cultured for one to two hours so as to be adhered in a direction of the gel layer formed in the middle. Then, put the chip down to its original state, replace the medium, and when the vascular endothelial cells form one blood vessel layer starting from the gel layer in the middle, a total of 20 μl of 1×10^6/ml lung cancer cells (A549) were put on the same layer, the chip was raised at 90° and cultured overnight so that the chip was attached in the direction of the gel layer formed in the middle. Then, the chip was put down again, the medium was replaced, and cultured for 5 days, and it was confirmed whether the lung cancer cells migrated to the middle gel layer. After that, the chip was put down to the original state again, the medium was replaced, the cells were cultured for five days, and whether the lung cancer cells migrated to the middle gel layer was checked. […]
For experiment [2], the system named is lung cancer cells (A549). The note with it: BBB mimicking model, FIG. 5B.
From the text: In addition, the BBB mimicking model was manufactured in the same method of manufacturing the lung mimicking model, but astrocytes (Human Astrocytes) (ScienCell, #1800) were used instead of fibroblasts, human brain microvascular endothelial cells (HBMVEC) (Cell systems, ACBRI 376) were used instead of HUVECs as vascular endothelial cells, and the total culture periods were set to be different due to the difference in cell proliferation rates between the lung mimicking model and the BBB mimicking model. […] In the experimental method, as described in Example 1 above, blood vessel cells were treated with CD31, lung cancer cells were treated with cytokeratin 8, and the cells were photographed by using a confocal microscope, Carl Zeiss, LSM710.

For the compound `c1cc(CN2CCCNCCNCCCNCC2)ccc1CN1CCCNCCNCCCNCC1` [AMD3100, AMD3100 (octahydrochloride)], the “metastasis of lung cancer cells” value in experiment [1] (1 μg/ml and 5 μg/ml, treated for one day or six days, compared to the group to which AMD3100 is not treated, confocal microscope) is recorded as “generally reduced”; in experiment [2] (1 μg/ml and 5 μg/ml, treated for one day or six days, confocal microscope) it was “reduced more”. Moreover, the metastasis suppression entry in experiment [1] (1 μg/ml treated for six days, compared among treatment groups) is given as “best metastasis suppression”; in experiment [2] (1 μg/ml treated for one day, compared among treatment groups), “best metastasis suppression”.

These data come from patent US20250198987A1, “SYSTEM FOR MEASURING METASTATIC POTENTIAL OF CANCER CELLS AND METHOD FOR MEASURING METASTATIC POTENTIAL OF CANCER CELLS BY USING SAME” (Seoul National University Hospital, priority 2020, published 2025).
